{"source": "ChEMBL document CHEMBL4823326", "about": "(ACS Med Chem Lett, 2021)", "key": {"HEK293": {"system": "HEK293", "experiment": "Induction of autophagy in human HEK293 cells expressing GFP-LC3B-RFP assessed as decrease in fluorescence at 10 uM after 24 hrs by multilabel counter method", "type": "functional", "design": "scale not given: the % may be the effect or the level left"}, "Prolyl endopeptidase": {"molecular_target": "Prolyl endopeptidase (Sus scrofa, UniProt P23687)", "sequence (P23687 whole entry)": "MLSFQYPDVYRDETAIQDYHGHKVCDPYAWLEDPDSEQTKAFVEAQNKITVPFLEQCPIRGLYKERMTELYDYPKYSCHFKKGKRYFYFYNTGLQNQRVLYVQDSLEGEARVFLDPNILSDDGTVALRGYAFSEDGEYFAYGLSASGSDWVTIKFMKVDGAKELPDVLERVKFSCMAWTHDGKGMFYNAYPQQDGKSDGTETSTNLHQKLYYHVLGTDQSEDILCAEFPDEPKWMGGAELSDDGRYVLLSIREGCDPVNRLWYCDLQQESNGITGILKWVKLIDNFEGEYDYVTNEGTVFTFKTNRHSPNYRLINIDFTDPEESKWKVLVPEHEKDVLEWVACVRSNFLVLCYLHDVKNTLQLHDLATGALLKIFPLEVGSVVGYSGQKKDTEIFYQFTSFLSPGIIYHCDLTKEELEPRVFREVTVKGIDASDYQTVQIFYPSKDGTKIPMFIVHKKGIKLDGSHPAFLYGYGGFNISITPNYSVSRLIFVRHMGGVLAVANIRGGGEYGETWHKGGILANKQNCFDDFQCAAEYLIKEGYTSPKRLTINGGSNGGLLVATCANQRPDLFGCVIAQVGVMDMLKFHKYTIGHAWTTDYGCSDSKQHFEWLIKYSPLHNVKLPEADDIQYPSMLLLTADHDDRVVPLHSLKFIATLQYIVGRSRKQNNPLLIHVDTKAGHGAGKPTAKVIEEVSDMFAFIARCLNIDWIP", "experiment": "Inhibition of recombinant porcine PREP expressed in Escherichia coli using Suc-Gly-Pro-AMC as substrate preincubated for 30 mins followed by substrate addition and measured after 60 mins by multilabel counter analysis"}}}
{"smiles": "N#C[C@@H]1CCCN1C(=O)[C@@H]1CCCN1C(=O)CCCc1ccccc1", "values": [{"measurement": "Activity", "setting": "HEK293", "result": 89, "unit": "%"}]}
{"smiles": "C[C@H](NC(=O)CCCc1ccccc1)C(=O)N1CCC[C@H]1c1nnc[nH]1", "values": [{"measurement": "IC50", "setting": "Prolyl endopeptidase", "result": 55, "unit": "µM"}]}
{"smiles": "CN(CC(=O)N1CCC[C@H]1c1nnn[nH]1)C(=O)CCc1ccccc1", "values": [{"measurement": "IC50", "setting": "Prolyl endopeptidase", "result": 62, "unit": "µM"}]}
{"smiles": "O=C(CCCc1ccccc1)N1CCC[C@H]1C(=O)N1CCC[C@H]1c1ccn[nH]1", "values": [{"measurement": "IC50", "setting": "Prolyl endopeptidase", "result": 70, "unit": "µM"}]}
{"smiles": "O=C(CCCc1ccccc1)N1CCC[C@H]1C(=O)N1CCC[C@H]1c1nnc[nH]1", "values": [{"measurement": "IC50", "setting": "Prolyl endopeptidase", "result": 29, "unit": "µM"}]}
{"smiles": "Cn1nnc([C@@H]2CCCN2C(=O)[C@@H]2CCCN2C(=O)CCCc2ccccc2)n1", "values": [{"measurement": "IC50", "setting": "Prolyl endopeptidase", "result": 12, "unit": "µM"}]}
